According to patent US6608082B1, “Treatment of erectile dysfunction using isoquinoline compound melanocortin receptor ligands” (Lion Bioscience AG, priority 1998, dated 2003):
pEC50: −log10 of the molar value. “And” between values parts separate entries of the source, which are not always exact repeats. Identical values can stand only once. Blank lines part the entries; values can stand above or below the compound they belong to.

How the values were obtained:
MCR-1 = biological target: T1, MCR-1 (Homo sapiens, UniProt Q01726); assay: cAMP assay for melanocortin receptors, HEK 293 cells expressing MCR-1; type: cell-based; settings: for pEC50: 50% of maximal cAMP production, read-out: MC-1 EC50 (cAMP); for MC-1 Max (pmole) cAMP produced: maximum amount of cAMP
T1 construct: expressed in transfected cells; host or cells: HEK 293
Procedure: HEK 293 cells expressing MCR-1, MCR-3, MCR-4 and MCR-5 were used (see Example II). Cells were plated at 20,000 cells per well in a 96-well plate coated with collagen. The next day, cells were pretreated with 75 μl of 0.4 mM 3-isobutyl-1-methylxanthine (IBMX) in low serum medium containing DMEM, 25 mM HEPES, non-essential amino acids, vitamins, 100 units/ml penicillin, 100 μg/ml streptomycin and 0.1% COSMIC CALF SERUM. IBMX is an inhibitor of cAMP phosphodiesterase. The pretreatment was carried out for 10 min at 37° C.
Following pretreatment, 25 μl of diluted isoquinoline compound was added to the wells, and cells were incubated for 15 min at 37° C. Cells were lysed by adding 25 μl saponin lysis buffer and incubating 2 to 5 min. Plates were covered and stored at −20° C.
cAMP concentration was determined by ELISA. Briefly, 96 well ELISA plates were coated with goat anti-cAMP antibody in PBS for 12 to 72 hr at 4° C. 50 μl of sample was mixed with 50 μl of cAMP ELISA buffer containing 1% bovine serum albumin, 10% heat-inactivated donor horse serum, 1% normal mouse serum and 0.05% TWEEN-20 in PBS, and the diluted sample was added to the coated ELISA plate. Standards of known concentrations of cAMP were added to separate wells. 25 μl of 16 ng/ml cAMP-conjugated horse radish peroxidase (HRP) (cAMP-HRP) was added to each well, and the plates were […] at room temperature. Plates were washed and the binding of cAMP-HRP was detected with 3,3′,5,5′-tetramethylbenzidine (TMB) and hydrogen peroxide using standard immunoassay procedures.
Various isoquinoline compounds were tested for their ability to activate MC receptor by measuring cAMP as described in Example III.

TNF-α = assay: Reduction of lipopolysaccharide-induced tumor necrosis factor levels in mice; type: in vivo, BALB/c female mice; settings: for % TNF-α Inhibtion, IP 30: 30 μg per mouse; for % TNF-α Inhibtion, IP 30 / % TNF-α Inhibtion, IP 100 / % TNF-α Inhibtion, IP 300 / % TNF-α Inhibtion, Oral 600 / % TNF-α Inhibtion, Oral 300: plasma 90 or 105 minutes after LPS, mean ± SEM; for % TNF-α Inhibtion, IP 100: 100 μg per mouse; for % TNF-α Inhibtion, IP 300 / % TNF-α Inhibtion, Oral 300: 300 μg per mouse; for % TNF-α Inhibtion, Oral 600: 600 μg per mouse
Procedure: BALB/c female mice weighing approximately 20 g were placed into a control group and a treated group. Five mg/kg of LPS in 0.9% saline was administered (100 μl to give 100 μg LPS per mouse) by intraperitoneal (IP) injection to all mice. Mice in the treatment group received either 30, 100, 300 or 600 μg of various isoquinoline compounds per mouse in a volume of 100 μl of PBS. Control mice received 100 μl of saline alone. One minute after initial injections all mice received the LPS injection. As a positive control, 100 μg of HP 228 was injected per mouse.
Blood samples were collected from the orbital sinus of treated and control mice 90 minutes or 105 minutes after LPS administration. The plasma was separated by centrifugation at 3000×g for 5 min and stored at −20° C. Samples were thawed and diluted, if TNF-α concentration was greater than 3200 pg/ml, with PBS containing 1% bovine serum albumin, 10% donor horse serum, 1% normal mouse serum, 0.05% TWEEN-20 and 0.05% thimerosal. A 100 μl sample of plasma was assayed by ELISA for TNF-α. Briefly, ELISA plates were coated with hamster anti-mouse TNF-α antibody (Genzyme; Cambridge Mass.). Samples or known concentrations of TNF-α were added to the coated plates and incubated for 2 hr at 37° C. Plates were washed and subsequently incubated with biotinylated rabbit anti-mouse TNG-α for 1 hr at 37° C. Plates were washed and incubated with streptavidin-HRP for 1 hr at 37° C., and HRP activity was detected with hydrogen peroxide and o-phenylenediamine (OPD) using standard immunoassay procedures.
The mean (±SEM) TNF-α level in five mice from each group was determined and the percent reduction in TNF-α levels was calculated.

T1 sequence (Q01726 whole entry): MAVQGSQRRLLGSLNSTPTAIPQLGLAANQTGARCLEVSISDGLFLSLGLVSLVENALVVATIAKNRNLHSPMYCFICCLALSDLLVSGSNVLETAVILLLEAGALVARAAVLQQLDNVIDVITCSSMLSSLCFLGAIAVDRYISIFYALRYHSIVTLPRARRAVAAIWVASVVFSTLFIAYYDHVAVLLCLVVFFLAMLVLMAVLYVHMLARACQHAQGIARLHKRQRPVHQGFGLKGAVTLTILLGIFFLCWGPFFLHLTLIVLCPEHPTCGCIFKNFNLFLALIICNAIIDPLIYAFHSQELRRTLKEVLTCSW

Compound: CNC(CN)CN1Cc2ccccc2C(CNC2CCCCC2)C1c1ccc(O)cc1 (centres unmarked) [TRG 2405-156]
pEC50 (MCR-1): 4.69 | MC-1 Max (pmole) cAMP produced (MCR-1): 16.01 pmol | % TNF-α Inhibtion, IP 30 (TNF-α): 30 ± 13% | % TNF-α Inhibtion, IP 100 (TNF-α): 12 ± 7% | % TNF-α Inhibtion, IP 300 (TNF-α): 48 ± 16%

Compound: CNC(CN)CCCCN1Cc2ccccc2C(CNC2CCCCC2)C1c1ccc(N(C)C)cc1 (centres unmarked) [TRG 2405-235]
pEC50 (MCR-1): 4.52 | MC-1 Max (pmole) cAMP produced (MCR-1): 17.07 pmol | % TNF-α Inhibtion, IP 30 (TNF-α): 8 ± 7% | % TNF-α Inhibtion, IP 100 (TNF-α): 39 ± 7% | % TNF-α Inhibtion, IP 300 (TNF-α): 50 ± 9%

Compound: CNC(CN)CCCCN1Cc2ccccc2C(CNC2CCCCC2)C1c1ccc(C(F)(F)F)cc1 (centres unmarked) [TRG 2405-238]
pEC50 (MCR-1): 4.70 | MC-1 Max (pmole) cAMP produced (MCR-1): 29.82 pmol | % TNF-α Inhibtion, IP 30 (TNF-α): 19 ± 7% | % TNF-α Inhibtion, IP 100 (TNF-α): 73 ± 1 % | % TNF-α Inhibtion, IP 300 (TNF-α): 84 ± 18 % | % TNF-α Inhibtion, Oral 600 (TNF-α): 6 ± 28%

Compound: CNC(CN)CCCCN1Cc2ccccc2C(CNC2CCCCC2)C1c1ccc(-c2ccccc2)cc1 (centres unmarked) [TRG 2405-241]
pEC50 (MCR-1): 4.98 | MC-1 Max (pmole) cAMP produced (MCR-1): 66.67 pmol | % TNF-α Inhibtion, IP 30 (TNF-α): 26 ± 15% | % TNF-α Inhibtion, IP 100 (TNF-α): 75 ± 3 % | % TNF-α Inhibtion, IP 300 (TNF-α): 45 ± 9% | decrease of TNF-α levels (TNF-α; LPS treated mice): particularly effective at decreasing TNF-α | % TNF-α Inhibtion, Oral 300 (TNF-α): 38 ± 9 % | % TNF-α Inhibtion, Oral 600 (TNF-α): 74 ± 8 %

Compound: CNC(CN)CCCCN1Cc2ccccc2C(CNC2CCCCC2)C1c1ccc(Br)cc1 (centres unmarked) [TRG 2405-242]
pEC50 (MCR-1): 4.88 | MC-1 Max (pmole) cAMP produced (MCR-1): 55.89 pmol | % TNF-α Inhibtion, IP 30 (TNF-α): 21 ± 8% | % TNF-α Inhibtion, IP 100 (TNF-α): 60 ± 4 % | % TNF-α Inhibtion, IP 300 (TNF-α): 68 ± 5 %

Compound: CNC(CN)CCCCN1Cc2ccccc2C(CNC2CCCCC2)C1c1ccc(O)cc1 (centres unmarked) [TRG 2405-246]
pEC50 (MCR-1): 4.62 | MC-1 Max (pmole) cAMP produced (MCR-1): 12.48 pmol | % TNF-α Inhibtion, IP 30 (TNF-α): 27 ± 9% | % TNF-α Inhibtion, IP 300 (TNF-α): 80 ± 3 % | % TNF-α Inhibtion, Oral 600 (TNF-α): −29 ± 31 %

Compound: CNC(CN)CCCCN1Cc2ccccc2C(CNC2CCCCC2)C1c1ccc(Oc2ccccc2)cc1 (centres unmarked) [TRG 2405-252]
pEC50 (MCR-1): 4.80 | MC-1 Max (pmole) cAMP produced (MCR-1): 33.07 pmol | % TNF-α Inhibtion, IP 30 (TNF-α): 49 ± 14 % | % TNF-α Inhibtion, IP 300 (TNF-α): 90 ± 2 % | decrease of TNF-α levels (TNF-α; LPS treated mice): particularly effective at decreasing TNF-α | % TNF-α Inhibtion, Oral 600 (TNF-α): 55 ± 13 %

Compound: CNC(CN)CCCCN1Cc2ccccc2C(CNC2CCCCC2)C1c1ccc2cccc(O)c2n1 (centres unmarked) [TRG 2405-262]
pEC50 (MCR-1): < 4.30 | % TNF-α Inhibtion, IP 300 (TNF-α): 83 ± 3 %

Compound: CNC(CN)CCCCN1Cc2ccccc2C(CN)C1c1ccc(Cl)cc1Cl (centres unmarked) [TRG 2407-39]
% TNF-α Inhibtion, IP 30 (TNF-α): 24 ± 17% | % TNF-α Inhibtion, IP 300 (TNF-α): 72 ± 5 %

Second part, led by results:

pEC50 (MCR-1): 5.07 | MC-1 Max (pmole) cAMP produced (MCR-1): 33.56 pmol
Compound: CNC(CN)CCCCN1Cc2ccccc2C(CNC2CCCCC2)C1c1ccc(Cl)cc1Cl (centres unmarked) [TRG 2405-190]
% TNF-α Inhibtion, IP 30 (TNF-α): 70 ± 11 % | % TNF-α Inhibtion, IP 100 (TNF-α): −6 ± 7% | % TNF-α Inhibtion, IP 300 (TNF-α): 83 ± 11 % | decrease of TNF-α levels (TNF-α; LPS treated mice): particularly effective at decreasing TNF-α

pEC50 (MCR-1): 5.44 | MC-1 Max (pmole) cAMP produced (MCR-1): 20.6 pmol
Compound: CCNc1ccc(C2C(CNC3CCCCC3)c3ccccc3CN2CCCCC(CN)NC)cc1 (centres unmarked) [TRG 2405-239]
% TNF-α Inhibtion, IP 30 (TNF-α): 13 ± 8% | % TNF-α Inhibtion, IP 100 (TNF-α): 10 ± 6% | % TNF-α Inhibtion, IP 300 (TNF-α): 66 ± 9 % | % TNF-α Inhibtion, Oral 600 (TNF-α): 9 ± 14%

pEC50 (MCR-1): 5.07 | MC-1 Max (pmole) cAMP produced (MCR-1): 22.55 pmol
Compound: CCCOc1ccc(C2C(CNC3CCCCC3)c3ccccc3CN2CCCCC(CN)NC)cc1 (centres unmarked) [TRG 2405-253]
% TNF-α Inhibtion, IP 30 (TNF-α): 46 ± 8% | % TNF-α Inhibtion, IP 300 (TNF-α): 80 ± 7% | decrease of TNF-α levels (TNF-α; LPS treated mice): particularly effective at decreasing TNF-α

pEC50 (MCR-1): 5.55 | MC-1 Max (pmole) cAMP produced (MCR-1): 125.79 pmol
Compound: CCNc1ccc(C2C(CNC3CCCCC3)c3ccccc3CN2CCCCC(CN)NC)cc1 (centres unmarked) [TRG 2408-30]
% TNF-α Inhibtion, IP 30 (TNF-α): 30 ± 14% | % TNF-α Inhibtion, IP 300 (TNF-α): 78 ± 3 % | decrease of TNF-α levels (TNF-α; LPS treated mice): particularly effective at decreasing TNF-α | inhibiting TNF-α (TNF-α; LPS treated mice, both i.p. and oral administration): particularly effective at inhibiting TNF-α | % TNF-α Inhibtion, Oral 300 (TNF-α): 42 ± 14 % | % TNF-α Inhibtion, Oral 600 (TNF-α): 74 ± 4 %

pEC50 (MCR-1): > 7.00
Compound: CCNc1ccc(C2C(CNCc3ccccc3O)c3ccccc3CN2CCCC(CN)NCCc2ccccc2)cc1 (centres unmarked) [TRG 2408-57]
% TNF-α Inhibtion, IP 30 (TNF-α): 76 ± 8 % | % TNF-α Inhibtion, IP 100 (TNF-α): 83 ± 2 % and 87 ± 5 % | % TNF-α Inhibtion, IP 300 (TNF-α): 86 ± 2 % | % TNF-α Inhibtion, Oral 300 (TNF-α): 21 ± 11% | % TNF-α Inhibtion, Oral 600 (TNF-α): 72 ± 7 %

pEC50 (MCR-1): > 7.00
Compound: CCNc1ccc(C2C(CNC3CCCCC3)c3ccccc3CN2CCCC(CN)NCCc2ccccc2)cc1 (centres unmarked) [TRG 2408-62]
% TNF-α Inhibtion, IP 30 (TNF-α): 71 ± 6 % | % TNF-α Inhibtion, IP 300 (TNF-α): 84 ± 8 % | % TNF-α Inhibtion, Oral 300 (TNF-α): 45 ± 11% | % TNF-α Inhibtion, Oral 600 (TNF-α): 35 ± 5%

pEC50 (MCR-1): 6.00 | MC-1 Max (pmole) cAMP produced (MCR-1): 200 pmol
Compound: CCCCNc1ccc(C2C(CNCc3ccccc3O)c3ccccc3CN2CCCCC(CN)NC)cc1 (centres unmarked) [TRG 2409-2]
% TNF-α Inhibtion, IP 30 (TNF-α): 57 ± 6 % | % TNF-α Inhibtion, IP 300 (TNF-α): 65 ± 14% | % TNF-α Inhibtion, Oral 300 (TNF-α): 58 ± 2 % | % TNF-α Inhibtion, Oral 600 (TNF-α): 65 ± 2 %

pEC50 (MCR-1): 6.06 | MC-1 Max (pmole) cAMP produced (MCR-1): 170 pmol
Compound: CCCCNc1ccc(C2C(CNC3CCCCC3)c3ccccc3CN2CCCCC(CN)NC)cc1 (centres unmarked) [TRG 2409-14]
% TNF-α Inhibtion, IP 30 (TNF-α): 31 ± 7% | % TNF-α Inhibtion, IP 300 (TNF-α): 76 ± 7 % | % TNF-α Inhibtion, Oral 300 (TNF-α): 41 ± 9 % | % TNF-α Inhibtion, Oral 600 (TNF-α): 67 ± 4 %
